Patent publication US8513252B2, “Pyrazole derivatives and their use as positive allosteric modulators of metabotropic glutamate receptors” (Addex Pharma S.A., priority 2009, dated 2013)

How the values were obtained:
[1] = molecular target: T1, recombinant human mGluR4a receptors (Homo sapiens, UniProt Q14833); assay: mGluR4 assay on HEK-expressing human mGluR4: fluorescent cell based Ca2+ mobilization assay (FLIPR); settings: HEK-293 cells expressing hmGluR4; potentiation of EC25 glutamate; mean of at least three independent experiments in duplicate; read-out: Ca^2+ Flux (mean EC50)
T1 construct: expressed in transfected cells
Source text: mGluR4 Assay on HEK-Expressing Human mGluR4
The compounds of the present invention are positive allosteric modulators of mGluR4 receptor. Their activity was examined on recombinant human mGluR4a receptors by detecting changes in intracellular Ca^2+ concentration, using the fluorescent Ca^2+-sensitive dye Fluo4-(AM) and a Fluorometric Imaging Plate Reader (FLIPR, Molecular Devices, Sunnyvale, Calif.).
The cDNA encoding the human metabotropic glutamate receptor (hmGluR4), (accession number NM_000841.1, NCBI Nucleotide database browser), was subcloned into an expression vector containing also the hygromycin resistance gene. In parallel, the cDNA encoding a G protein allowing redirection of the activation signal to intracellular calcium flux was subcloned into a different expression vector containing also the puromycin resistance gene. Transfection of both these vectors into HEK293 cells with PolyFect reagent (Qiagen) according to supplier's protocol, and hygromycin and puromycin treatment allowed selection of antibiotic resistant cells which had integrated stably one or more copies of the plasmids. Positive cellular clones expressing hmGluR4 were identified in a functional assay measuring changes in calcium fluxes in response to glutamate or selective known mGluR4 orthosteric agonists and antagonists.
HEK-293 cells expressing hmGluR4 were maintained in media containing DMEM, dialyzed Fetal Calf Serum (10%), Glutamax™ (2 mM), Penicillin (100 units/mL), Streptomycin (100 μg/mL), Geneticin (100 μg/mL) and Hygromycin-B (40 μg/mL) and puromycin (1 μg/mL) at 37° C./5% CO2.
Human mGluR4 HEK-293 cells were plated out 24 hours prior to FLIPR^384 assay in black-walled, clear-bottomed, poly-L-ornithine-coated 384-well plates at a density of 25,000 cells/well in a glutamine/glutamate free DMEM medium containing foetal bovine serum (10%), penicillin (100 units/mL) and streptomycin (100 μg/mL) at 37° C./5% CO2.
On the day of the assay, the medium was aspirated and the cells were loaded with a 3 μM solution of Fluo-4-AM (LuBioScience, Lucerne, Switzerland) in 0.03% pluronic acid. After 1 hour at 37° C./5% CO2, the non incorporated dye was removed by washing cell plate with the assay buffer and the cells were left in the dark at room temperature for […] before testing. All assays were performed in a pH 7.4 buffered-solution containing 20 mM HEPES, 143 mM NaCl, 6 mM KCl, 1 mM MgSO4, 1 mM CaCl2, 0.125 mM sulfapyrazone and 0.1% glucose.
After 10 s of basal fluorescence recording, various concentrations of the compounds of the invention were added to the cells. Changes in fluorescence levels were first monitored for 180 s in order to detect any agonist activity of the compounds. Then the cells were stimulated by an EC25 glutamate concentration for an additional 110 s in order to measure enhancing activities of the compounds of the invention. EC25 glutamate concentration is the concentration giving 25% of the maximal glutamate response.
The concentration-response curves of representative compounds of the present invention were generated using the Prism GraphPad software (Graph Pad Inc, San Diego, USA). The curves were fitted to a four-parameter logistic equation: (Y=Bottom+(Top-Bottom)/(1+10^((Log EC50−X)*Hill Slope) allowing the determination of EC50 values.
The Table 4 below represents the mean EC50 obtained from at least three independent experiments of selected molecules performed in duplicate.

T1 sequence (Q14833 33-912): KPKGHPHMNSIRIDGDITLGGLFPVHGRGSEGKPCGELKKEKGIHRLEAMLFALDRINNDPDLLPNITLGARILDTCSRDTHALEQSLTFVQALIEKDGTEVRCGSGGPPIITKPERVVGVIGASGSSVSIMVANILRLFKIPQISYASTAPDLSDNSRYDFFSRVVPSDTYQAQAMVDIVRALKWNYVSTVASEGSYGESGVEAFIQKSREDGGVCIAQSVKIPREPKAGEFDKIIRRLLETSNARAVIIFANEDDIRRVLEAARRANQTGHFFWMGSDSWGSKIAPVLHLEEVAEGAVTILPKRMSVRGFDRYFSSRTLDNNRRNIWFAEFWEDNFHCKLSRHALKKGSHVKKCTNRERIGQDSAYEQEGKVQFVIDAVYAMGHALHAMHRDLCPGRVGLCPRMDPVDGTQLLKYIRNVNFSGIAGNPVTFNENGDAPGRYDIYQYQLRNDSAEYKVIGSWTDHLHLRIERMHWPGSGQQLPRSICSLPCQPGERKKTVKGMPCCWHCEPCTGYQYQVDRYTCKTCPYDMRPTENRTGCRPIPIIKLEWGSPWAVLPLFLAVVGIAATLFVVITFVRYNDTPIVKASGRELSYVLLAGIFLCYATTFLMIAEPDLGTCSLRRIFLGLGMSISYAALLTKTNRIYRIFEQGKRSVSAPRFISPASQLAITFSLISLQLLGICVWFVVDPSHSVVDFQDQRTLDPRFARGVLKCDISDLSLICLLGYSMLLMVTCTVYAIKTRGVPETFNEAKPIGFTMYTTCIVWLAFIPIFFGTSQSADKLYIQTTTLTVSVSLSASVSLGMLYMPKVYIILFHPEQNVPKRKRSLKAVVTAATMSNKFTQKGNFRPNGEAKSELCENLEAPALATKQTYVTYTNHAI

| SMILES | melting point | EC50 [1] |
| --- | --- | --- |
| Cc1n[nH]cc1-c1nsc(Oc2ccccc2)n1 [Compound 1-1, 3-(3-Methyl-1H-pyrazol-4-yl)-5-phenoxy-1,2,4-thiadiazole] | 165 to 166 °C | 1000 to 10000 nM |
| FC(F)(F)c1n[nH]cc1-c1nsc(Oc2ccccn2)n1 [Compound 1-2, 5-(Pyridin-2-yloxy)-3-(3-(trifluoromethyl)-1H-pyrazol-4-yl)-1,2,4-thiadiazole] | 245 to 247 °C | < 100 nM |
| Cc1[nH]ncc1-c1csc(Oc2ncccn2)n1 [Compound 1-4, 4-(5-Methyl-1H-pyrazol-4-yl)-2-(pyrimidin-2-yloxy)thiazole] | 177 °C |  |
| Fc1cccc(F)c1Oc1nc(-c2cn[nH]c2)cs1 [Compound 1-5, 2-(2,6-Difluorophenoxy)-4-(1H-pyrazol-4-yl)thiazole] | 131 to 135 °C | 100 to 1000 nM |
| c1ccc(Oc2nc(-c3cn[nH]c3)cs2)nc1 [Compound 1-6, 4-(1H-Pyrazol-4-yl)-2-(pyridin-2-yloxy)thiazole] | 151 to 152 °C |  |
| Cc1n[nH]cc1-c1csc(Oc2cccc(Cl)n2)n1 [Compound 1-7, 2-(6-Chloropyridin-2-yloxy)-4-(3-methyl-1H-pyrazol-4-yl)thiazole] | 158 to 161 °C | < 100 nM |

Now from value to molecule:

| melting point | EC50 [1] | SMILES |
| --- | --- | --- |
| 160 °C |  | Cc1n[nH]cc1-c1csc(Oc2ncccc2F)n1 [Compound 1-8, 2-(3-Fluoropyridin-2-yloxy)-4-(3-methyl-1H-pyrazol-4-yl)thiazole] |
| 194 to 195 °C |  | CC(=O)c1n[nH]cc1-c1csc(Oc2cccc(C)n2)n1 [Compound 1-9, 1-(4-(2-(6-Methylpyridin-2-yloxy)thiazol-4-yl)-1H-pyrazol-3-yl)ethanone] |
| 176 to 178 °C | < 100 nM | Cc1cccc(Oc2nc(-c3cn[nH]c3)cs2)n1 [Compound 1-10, 2-(6-Methylpyridin-2-yloxy)-4-(1H-pyrazol-4-yl)thiazole] |
| 138 to 139 °C |  | Cc1cccc(Oc2nc(-c3c[nH]nc3C)cs2)n1 [Compound 1-11, 4-(3-Methyl-1H-pyrazol-4-yl)-2-(6-methylpyridin-2-yloxy)thiazole] |
|  | 100 to 1000 nM | Fc1ccc(Oc2nc(-c3cn[nH]c3)cs2)nc1 [Compound 1-18, 2-(5-Fluoropyridin-2-yloxy)-4-(1H-pyrazol-4-yl)thiazole] |
|  | < 100 nM | N#Cc1sc(Oc2cccc(Cl)n2)nc1-c1cn[nH]c1 [Compound 1-21, 2-(6-Chloropyridin-2-yloxy)-4-(1H-pyrazol-4-yl)thiazole-5-carbonitrile] |
